Reference: ChEMBL document CHEMBL1121758, “(-)-4-Hydroxymorphinanones: their synthesis and analgesic activity” (1981)
Activity calls are given as the source filed them. The calls are words filed in the database; no cut-off is given here.

Experiments:
[1] = species on record: Mus musculus; assay: Antinociceptive activity determined in acetic acid induced mouse writhing test; assay type: functional
[2] = system: Rattus norvegicus; assay: Antagonist activity (administered subcutaneously) determined by rat tail flick test; assay type: functional; settings: sc
[3] = system: Rattus norvegicus; assay: Agonist activity (administered subcutaneously) determined by rat tail flick test; assay type: functional; settings: sc
[4] = system: Rattus norvegicus; assay: Antagonist activity (administered subcutaneously) determined by rat tail flick test; Inactive at 10 mg/kg; assay type: functional, organism-based; design: dose 10 mg/kg

Row | Structure (SMILES) | ED50 [1] [mg/kg] | ED50 [2] [mg/kg] | ED50 [3] [mg/kg] | ED50 [4]
1 | O=C1CCC2C3Cc4cccc5c4C2(CCN3CC2CC2)C1O5 (centres undefined) | 0.06 | 12.5 |  | 
2 | CN1CCC23CC(=O)CCC2C1Cc1cccc(O)c13 (centres undefined) | 0.18 |  | 19.2 | 
3 | O=C1CCC2C3Cc4ccc(O)cc4C2(CCN3CC2CC2)C1 (centres undefined) |  | 2.3 |  | 
4 | C=CCN1CC[C@]23c4c5ccc(O)c4O[C@H]2[C@@H](O)C=C[C@H]3[C@H]1C5 [NALORPHINE] | 1.22 | 0.86 |  | 
5 | CN1CCC23CC(=O)CCC2C1Cc1ccc(O)cc13 (centres undefined) | 0.15 |  | 20 | 
6 | CN1CC[C@]23c4c5ccc(O)c4O[C@H]2[C@@H](O)C=C[C@H]3[C@H]1C5.CN1CC[C@]23c4c5ccc(O)c4O[C@H]2[C@@H](O)C=C[C@H]3[C@H]1C5.O=S(=O)(O)O | 0.8 |  | 7.3 | 
7 | COc1cccc2c1C13CCN(C)C(C2)C1CCC(=O)C3 (centres undefined) | 0.21 |  |  | 
8 | O=C1CCC2C3Cc4cccc(O)c4C2(CCN3CC2CC2)C1 (centres undefined) | 0.64 |  |  | inactive
